Experiments:
[1] = system: SK-MEL-28 aggressive human melanoma cells; assay: Loss of pre-formed VM network in SK-MEL-28 cells on MATRIGEL; format: cell-based; conditions: 100 nM
Method: TRX-818 M1 (i.e., compound No. 38) structurally similar compounds were tested for their effect on inhibition of vasculogenic mimicry. Aggressive human melanoma (SK-MEL-28 from ATCC®; 7.5×10^4 mL medium) cells were seeded onto a three-dimensional polymerized MATRIGEL™-coated 24-well plate. After 18 h of cell seeding, VM network was formed. The medium was then replaced with negative controls (untreated and DMSO treated controls), a positive control (100 nM of TRX-818M1) or 100 nM of each testing compound.

Smad2 = assay: Immunoblotting of total Smad2 in C8161 cells; format: cell-based, human; conditions: 10 nM
Method: (§1) To further understand how TRX-818 alters the signaling pathways required for VM network formation, the protein levels of Pro-Nodal, Smad2, and phosphorylated Smad2 (P-Smad2) were determined using immunoblotting analysis. On the day of study, TRX-818 was prepared as described in Example 1, C8161 cells were untreated (control) or treated with 10 nM TRX-818 for 1, 4, 8, and 24 h. Protein expression of Nodal and total Smad2, and P-Smad2 was analyzed by immunoblotting analysis, 5×10^6 aggressive human melanoma (C8161) cells were seeded onto a plastic dish in the presence of 10 nM TRX-818, and total proteins were collected for analysis. To quantify the protein levels of Nodal and P-Smad2, 40 μg and 25 μg of total proteins were used for SDS-PAGE and immunoblotting, respectively. The protein level of β-actin was used for normalization to assure equal protein loading.

SK-MEL28 cancer cells = assay: VM network formation in three-dimensional MATRIGEL, SK-MEL28 cells; format: cell-based, human; conditions: 24 h treatment
Method: (§2) Aggressive human melanoma (C8161 or SK-MEL28; 1×10^5) cells were seeded into a three-dimensional polymerized MATRIGEL™ (75 μl) for VM network analysis. C8161 or SK-MEL28 cells were treated for 24 h with 0.5, 1, 5, 10, 25 or 50 or 100 nM of TRX-818 at 5 or 24 h after cell attachment. Another set of melanoma cells were seeded onto a plastic dish and treated for the same amount of time before the cell viability of C8161 or SK-MEL28 cells was determined using the Guava Nexin Assay (Millipore, USA).
(§3) The VM network image was taken using a confocal laser scanning microscope equipped with an environmental, chamber to track the response of cancer cells to the test compound. The images were then digitized and subsequently analyzed using the Angiosys software. Four images per sample were analyzed to quantify the number of junctions and total tubule length of VM formation. Changes were presented in percentage relative to the vehicle control. Sterile deionized water (tissue-culture grade) was used as the vehicle control.

[2] = system: phosphorylated Smad2 (P-Smad2); assay: Immunoblotting of phosphorylated Smad2 in C8161 cells; format: cell-based, human; conditions: 10 nM
Method: as §1

Pro-Nodal = assay: Immunoblotting of Pro-Nodal protein in C8161 cells; format: cell-based, human; conditions: 10 nM
Method: as §1

[3] = system: Notch4 intracellular domain (Notch 4 ICD); assay: qRT-PCR mRNA level of Notch4 ICD in C8161 cells; format: cell-based, human; conditions: 10 nM
Method: (§4) To determine whether TRX-818 reduced the VM network formation by altering the levels of the essential proteins for VM, its effect on Nodal, Notch4, VE-cadherin (CDHE5) or ephrin receptor A2 (Eph A2) expression was determined using qRT-PCR. 2×10^6 of aggressive human melanoma (C8161) cells were treated with 10 nM TRX-818 for 8, 24, 48, or 72 h. Sterile deionized water (tissue-culture grade) was used as vehicle.

[4] = system: Aggressive human melanoma (C8161 or SK-MEL28) cells; assay: Quantification of number of junctions and total tubule length of VM formation (Angiosys); format: cell-based
Method: as §2, §3

[5] = system: C8161 aggressive melanoma cells; assay: VM network formation in three-dimensional MATRIGEL, C8161 cells; format: cell-based, human
Method: as §2, §3
Aggressive human melanoma (C8161, 7.5×10^4) cells were seeded as disclosed in Example 1. C8161 cells were treated tor 4 h or 24 h with 0.3, 1 or 5 nM of TRX-818M1. Another set of melanoma cells were seeded onto a plastic dish and treated for the same amount of time before the cell viability of C8161 cells was determined.

[6] = system: HCT-116 orthotopic human colon cancer xenograft; assay: HCT-116 orthotopic human colon cancer xenograft model; format: in vivo, mice; conditions: for animals found dead prior to study termination: ten mice/group
Method: The inhibitory effect of TRX-818 on tumor growth and VM formation of HCT-116, a highly metastatic colon tumor, was examined in a HCT-116 orthotopic xenograft model. The effect of TRX-818 was evaluated on the formation of the vascular or vascular-like (vasculogenic mimicry, VM) network by immunohistochemistry staining (IHC) in orthotopic xenograft human colon cancer model inoculated with HCT116 colon cancer cell lines
Six groups were set in this study (ten mice/group). There were: Group 1, TRX-818 at 20 mg/kg given as oral administration; Group 2, TRX-818 at 50 mg/kg given as oral administration; Group 3, TRX-818 at 100 mg/kg given as oral administration; Group 4, TRX-818 at 20 mg/kg given as intravenous injection; Group 5, Irinotecan at 50 mg/kg given as intraperitoneal injection; Group 6, vehicle group. Dose schedule for G1, G2, G3 and G6 was QD×28 and for G4 was QOD×7. Body weights were monitored for safety evaluation. Tumor size and tumor weight were measured at the end of in-life study. The percentage of tumor growth inhibition (TGI %) was calculated at the termination of the study for anti-tumor effect evaluation. The average body weight of study mice on Day 1 was ˜20 gram and decreased to ˜17-19 gram at the end of study (Day 42)
At the end of 28-day dosing, CO2 anesthesia (1 min) followed by cervical dislocation was used for mice euthanasia in the study prior to tumors and lungs excision. First, a ventral midline incision was made and colon with primary tumor was excised and collected. The tumor collection was completed in 3 minutes after euthanasia. The tissues were rinsed with PBS to remove the blood before fixation.
The number of channels with CD31^+/red blood cell (RBC)^+ or CD31^−/RBC^+ were counted on the whole section of each sample in each group, and the number of vessels with CD31 positive or negative staining were counted based on 5 light fields (200×) under microscope. The vascular network represented by the CD31^+/RBC^+ staining whereas the VM network represented by CD31^−/RBC^+ staining, because the VM formation is independent of vascular endothelial cells. The scoring was conducted by blinded, objective observer.

VE-cadherin (CDH5) = assay: qRT-PCR mRNA level of CDH5 in C8161 cells; format: cell-based, human; conditions: 10 nM
Method: as §4

Nodal = assay: qRT-PCR mRNA level of Nodal in C8161 cells; format: cell-based, human; conditions: 10 nM
Method: as §4

## O=c1cc(-c2cccc(Cl)c2)[nH]c2ccc3c(c12)OCO3 [Compound B1]
[1]; 5 h post treatment
  loss of VM network compared to negative controls: mild loss of VM network
[1]; 24 h post treatment
  loss of VM network compared to negative controls: marked loss of VM network

## COc1cccc(-c2cc(=O)c3c(O)c(OC)ccc3[nH]2)c1 [Compound B3]
[1]; 5 h post treatment
  loss of VM network compared to negative controls: mild loss of VM network
[1]; 24 h post treatment
  loss of VM network compared to negative controls: marked loss of VM network

## COc1ccc2[nH]c(-c3cccc(F)c3)cc(=O)c2c1OP(=O)(O)O [TRX-818, 2-(3-fluorophenyl)-6-methoxy-4-oxo-1,4-dihydroquinolin-5-yl phosphate]
Smad2; 1 hour
  Smad2 post-treatment protein level (relative to untreated control cells): +43%
Smad2; 4 hours
  Smad2 post-treatment protein level (relative to untreated control cells): +9%
Smad2; 8 hours
  Smad2 post-treatment protein level (relative to untreated control cells): +3%
Smad2; 24 hours
  Smad2 post-treatment protein level (relative to untreated control cells): +13%
SK-MEL28 cancer cells
  concentration at which VM network formation was inhibited: 5 to 10 nM
[2]; 1 hour
  P-Smad2/Smad2 post-treatment protein level (relative to untreated control cells): −33%
  P-Smad2 post-treatment protein level (relative to untreated control cells): −4%
[2]; 4 hours
  P-Smad2/Smad2 post-treatment protein level (relative to untreated control cells): −60%
  P-Smad2 post-treatment protein level (relative to untreated control cells): −57%
[2]; 8 hours
  P-Smad2/Smad2 post-treatment protein level (relative to untreated control cells): −40%
  P-Smad2 post-treatment protein level (relative to untreated control cells): −39%
[2]; 24 hours
  P-Smad2/Smad2 post-treatment protein level (relative to untreated control cells): −76%
  P-Smad2 post-treatment protein level (relative to untreated control cells): −73%
Pro-Nodal; 24 h
  decrease in Pro-Nodal protein level vs control cells: 63%
Pro-Nodal; four to eight hours
  decrease in Pro-Nodal protein level vs control cells: 28%
Pro-Nodal; one hour
  decrease in Nodal protein expression (detected as Pro-Nodal) vs control cells: 4%
[3]; 8 hours
  decrease of Notch4 ICD mRNA level compared to control: 75%
[3]; Homo sapiens, 72 h, read-out: Notch4 ICD mRNA level remaining, % of control cells
  mrna remaining at 0.01 µM: 50%
[4]; 1 nM
  No. of junctions, relative to vehicle control: −16.5%
  Total tubule length, relative to vehicle control: −15.1%
[4]; 5 nM
  No. of junctions, relative to vehicle control: −43.1%
  Total tubule length, relative to vehicle control: −23.3%
  maximal reduction of cell junctions: 43%
[4]; 10 nM
  No. of junctions, relative to vehicle control: −35.9%
  Total tubule length, relative to vehicle control: −26.0%
[4]; 50 nM
  No. of junctions, relative to vehicle control: −42.9%
  Total tubule length, relative to vehicle control: −47.5%
  maximal reduction of total tubule length: 48%
[5]; 24 h treatment
  concentration at which VM network formation was inhibited: 5 to 10 nM
[6]; 20 mg/kg QOD group (intravenous)
  animals found dead prior to study termination: two
[6]; 50 mg/kg QD group
  animals found dead prior to study termination: one
[6]; 50 mg/kg oral QD×28, Day 43 post tumor inoculation
  reduction of tumor volume compared to the vehicle group: 49%
[6]; 100 mg/kg QD×28, p.o.
  Average number of channels (CD31−/RBC+, VM) in the whole tumor section per group, Mean ± SEM: 0.8 ± 0.3
[6]; orally administered
  MED (Minimum Effective Dose): 50 mg/kg
VE-cadherin (CDH5); 8 hours
  decrease of CDH5 mRNA level compared to control: 70%
VE-cadherin (CDH5); Homo sapiens, 72 hours, read-out: CDH5 mRNA level remaining, % of control cells
  mrna remaining at 0.01 µM: 50%
Nodal; 8 hours
  decrease of Nodal mRNA level compared to control: 80%
Nodal; Homo sapiens, 72 h, read-out: Nodal mRNA level remaining, % of control cells
  mrna remaining at 0.01 µM: 70%

## CN(C)c1ccc2[nH]c(-c3cc(O)cc(F)c3)cc(=O)c2c1 [Compound C4]
[1]; 5 h post treatment
  loss of VM network compared to negative controls: mild loss of VM network
[1]; 24 h post treatment
  loss of VM network compared to negative controls: marked loss of VM network

## COc1ccc2[nH]c(-c3cccc(F)c3)cc(=O)c2c1OP(=O)(O)O [Compound 52, 2-(3-Fluorophenyl)-6-methoxy-4-oxo-1,4-dihydroquinolin-5-yl dihydrogen phosphate]
[1]; 5 h post treatment
  loss of VM network compared to negative controls: mild loss of VM network
[1]; 24 h post treatment
  loss of VM network compared to negative controls: marked loss of VM network

## O=c1cc(-c2ccccc2F)[nH]c2cc3c(cc12)OCO3 [CHM-2133, 2-(2-fluorophenyl)-6,7-methylenedioxyquinolin-4-one]
[5]
  concentration effective as vascular disrupting agent: ~0.3 nM
[5]; all tested concentrations
  VM network formation: inhibited

From US9717721B2, “Use of aryl-quinolin derivatives as inhibitors of vasculogenic mimicry” (TaiRx Inc., priority 2015, dated 2017)
